Target: T1, IGF-1R Ba/F3 (Homo sapiens, UniProt P08069)
T1 construct: fused on or other part: TEL- (or BCR-) IGF-1R in Ba/F3: the kinase part holds the site
Test: Ba/F3 Cell Viability Inhibition Assay (IGF-1R Ba/F3)
Type: cell-based, murine
Details: Tel-TK transformed Ba/F3 cells, 48 hours, Britelite luminescence
From the text: The IC50 of a drug may be determined constructing a dose-response curve and examining the effect of different concentrations of antagonist on reversing agonist activity. IC50 values may be calculated for a given antagonist by determining the concentration needed to inhibit half of the maximum biological response of the agonist. To calculate IC50 values, a series of dose-response data (e.g., drug concentrations x1, x2, . . . , xn and growth inhibition y1, y2, . . . , yn, the values of y are in the range of 0-1) is generated. IC50 values may be determined by a computer-aided system using the formula: y=D+((A−D)/(1+10^(x-log(IC50)B) • where A is the ratio of growth inhibition between lowest drug concentration and control; B is the slope of sigmoidal curvel; and D is the ratio of growth inhibition between highest drug concentration and control.
Ba/F3 is a murine IL-3-dependent pro-B lymphoma cell line. Parental Ba/F3 cells are used to generate a panel of sublines whose proliferation and survival is rendered IL-3-independent by stable transduction with individual tyrosine kinases activated by fusion with the amino-terminal portion of TEL (amino acid 1-375) or BCR. In order to generate Ba/F3 cell lines transformed by Tel-Tyrosine Kinase (TK) fusions, parental Ba/F3 cells are infected with a retrovirus harboring each TEL-fusion kinase and subjected to puromycin selection and IL-3 withdrawal to obtain IL-3-independent, transformed Ba/F3 cells.
Each transformed Ba/F3 cells are cultured in RPMI-1640 media (Gibco Cat #11875093, Carlsbad, Calif.) supplemented with 10% FBS (Hyclone Cat #SV30014.03, Logan, Utah), 4.5 g/L glucose (Sigma #G5400, St. Louis, Mo.), 1.5 g/L sodium bicarbonate (Biowhittaker #17-613E, Walkersville, Md.) and Pen/Strep (Gibco #10378-016, Carlsbad, Calif.). Cells are splitted twice weekly.
The potency of test compounds against various Tel-TK transformed Ba/F3 lines is determined as follows. Exponentially growing BaF3 Tel-TK cells are diluted in fresh medium to 75,000 cells/mL and seeded into 384-well plates (3750 cells/well) at 50 μL/well using a μFill liquid dispenser (BioTek, Winooski, Vt., USA). Duplicate plates are run for each cell line. Test and control compounds are serially diluted with DMSO and arrayed in a polypropylene 384-well plate. […] of compound is transferred into the assay plates using a pin-transfer device, and the plates are incubated at 37° C. (5% CO2) for 48 hours. 25 μL Britelite (Perkin Elmer) is added and luminescence is quantified using Analyst GT (Molecular Devices). Custom curve-fitting software is used to produce a logistic fit of percent cell viability as a function of the logarithm of inhibitor concentration. The IC50 is interpolated as the concentration of compound needed to reduce cell viability to 50% of a DMSO control. Parental Ba/F3 cells that are maintained and cultured in presence of IL-3 (1 ng/ml in final) are diluted in fresh medium containing IL-3 (1 ng/ml in final) to 75,000 cells/mL following the same procedure as described above.

T1 sequence (P08069 999-1274 limits assumed): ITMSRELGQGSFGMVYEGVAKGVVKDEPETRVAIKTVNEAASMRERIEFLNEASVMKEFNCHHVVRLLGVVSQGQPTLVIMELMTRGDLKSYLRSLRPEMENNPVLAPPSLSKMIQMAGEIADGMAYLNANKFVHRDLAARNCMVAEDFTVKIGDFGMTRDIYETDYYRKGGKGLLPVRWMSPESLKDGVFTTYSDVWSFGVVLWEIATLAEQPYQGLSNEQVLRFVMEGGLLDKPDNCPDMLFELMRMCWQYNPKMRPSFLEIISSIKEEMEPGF

## Cc1cc(Nc2nc(Nc3cc(C)c(C4CCN(C(=O)c5ccc[nH]5)CC4)cc3F)ncc2Cl)n[nH]1 [Compound 124, (4-(4-(5-chloro-4-(5-methyl-1H-pyrazol-3-ylamino)pyrimidin-2-ylamino)-5-fluoro-2-methylphenyl)piperidin-1-yl)(1H-pyrrol-2-yl)methanone]
  IC50: 145 nM

## CNC1(C(=O)N2CCC(c3cc(F)c(Nc4ncc(Cl)c(Nc5cc(C)[nH]n5)n4)cc3C)CC2)CCC1 [Compound 177, (4-(4-(5-chloro-4-(5-methyl-1H-pyrazol-3-ylamino)pyrimidin-2-ylamino)-5-fluoro-2-methylphenyl)piperidin-1-yl)(1-(methylamino)cyclobutyl)methanone]
  IC50: 80 nM

## Cc1cc(Nc2nc(Nc3cc(C)c(C4=CCNCC4)cc3F)ncc2Cl)n[nH]1 [Compound 150, 5-chloro-N2-(2-fluoro-5-methyl-4-(1,2,3,6-tetrahydropyridin-4-yl)phenyl)-N4-(5-methyl-1H-pyrazol-3-yl)pyrimidine-2,4-diamine]
  IC50: 25 nM

## Cc1cc(Nc2nc(Nc3cc(C)c(C4CCN(C(=O)C(C)(C)N)CC4)cc3C)ncc2Cl)n[nH]1 [Compound 89, 2-amino-1-(4-(4-(5-chloro-4-(5-methyl-1H-pyrazol-3-ylamino)pyrimidin-2-ylamino)-2,5-dimethylphenyl)piperidin-1-yl)-2-methylpropan-1-one]
  IC50: 23 nM

## Cc1cc(Nc2nc(Nc3cc(C4CCN(CC(O)C(F)(F)F)CC4)c(F)cc3C)ncc2Cl)n[nH]1 (stereo not shown) [Compound 31, 3-(4-(5-(5-chloro-4-(5-methyl-1H-pyrazol-3-ylamino)pyrimidin-2-ylamino)-2-fluoro-4-methylphenyl)piperidin-1-yl)-1,1,1-trifluoropropan-2-ol]
  IC50: 6470 nM

## Cc1cc(Nc2ncc(Cl)c(Nc3cc[nH]n3)n2)c(OC(C)C)cc1C1CCN(C)CC1 [Compound 161, 5-chloro-N2-(2-isopropoxy-5-methyl-4-(1-methylpiperidin-4-yl)phenyl)-N4-(1H-pyrazol-3-yl)pyrimidine-2,4-diamine]
  IC50: 332 nM

## Cc1cc(Nc2nc(Nc3cc(C)c(C4CCN(CCS(=O)(=O)N(C)C)CC4)cc3F)ncc2Cl)n[nH]1 [Compound 58, 2-(4-(4-(5-chloro-4-(5-methyl-1H-pyrazol-3-ylamino)pyrimidin-2-ylamino)-5-fluoro-2-methylphenyl)piperidin-1-yl)-N,N-dimethylethanesulfonamide]
  IC50: 36 nM

## Cc1cc(Nc2nc(Nc3cc(C)c(C4CCNCC4)cc3F)ncc2Cl)n[nH]1 [Compound 2, 5-chloro-N2-(2-fluoro-5-methyl-4-(piperidin-4-yl)phenyl)-N4-(5-methyl-1H-pyrazol-3-yl)pyrimidine-2,4-diamine]
  IC50: 50 nM

## Cc1cc(Nc2nc(Nc3cc(C)c(C4CCN(C(=O)c5nc(C(C)C)no5)CC4)cc3C)ncc2Cl)n[nH]1 [Compound 270, (4-(4-(5-chloro-4-(5-methyl-1H-pyrazol-3-ylamino)pyrimidin-2-ylamino)-2,5-dimethylphenyl)piperidin-1-yl)(3-isopropyl-1,2,4-oxadiazol-5-yl)methanone]
  IC50: 18 nM

## Cc1cc(Nc2nc(Nc3cc(C)c(C4CCN(CCS(C)(=O)=O)CC4)cc3F)ncc2Cl)n[nH]1 [Compound 55, 5-Chloro-N2-(2-fluoro-5-methyl-4-(1-(2-(methylsulfonyl)ethyl)piperidin-4-yl)phenyl)-N4-(5-methyl-1H-pyrazol-3-yl)pyrimidine-2,4-diamine]
  IC50: 24 nM

## Cc1cc(Nc2nc(Nc3cc(C)c(C4CCN(C5CCC(O)CC5)CC4)cc3F)ncc2Cl)n[nH]1 (stereo not shown) [Compound 298, 4-(4-(4-(5-chloro-4-(5-methyl-1H-pyrazol-3-ylamino)pyrimidin-2-ylamino)-5-fluoro-2-methylphenyl)piperidin-1-yl)cyclohexanol]
  IC50: 26 nM

## Cc1cc(Nc2nc(Nc3cc(C)c(C4CCN(C(=O)c5nc(C)oc5C(F)(F)F)CC4)cc3F)ncc2Cl)n[nH]1 [Compound 141, (4-(4-(5-chloro-4-(5-methyl-1H-pyrazol-3-ylamino)pyrimidin-2-ylamino)-5-fluoro-2-methylphenyl)piperidin-1-yl)(2-methyl-5-(trifluoromethyl)oxazol-4-yl)methanone]
  IC50: 69 nM

## Cc1cc(Nc2nc(Nc3cc(C)c(C4CCN(S(=O)(=O)CCCN5CCCC5)CC4)cc3C)ncc2Cl)n[nH]1 [Compound 233, 5-chloro-N2-(2,5-dimethyl-4-(1-(3-(pyrrolidin-l-yl)propylsulfonyl)piperidin-4-yl)phenyl)-N4-(5-methyl-1H-pyrazol-3-yl)pyrimidine-2,4-diamine]
  IC50: 54 nM

## Cc1cc(Nc2nc(Nc3cc(C)c(C4CCN(CC(F)(F)F)CC4)cc3F)ncc2Cl)n[nH]1 [Compound 26, 5-chloro-N2-(2-fluoro-5-methyl-4-(1-(2,2,2-trifluoroethyl)piperidin-4-yl)phenyl)-N4-(5-methyl-1H-pyrazol-3-yl)pyrimidine-2,4-diamine]
  IC50: 142 nM

## Cc1cc(Nc2nc(Nc3cc(C)c(C4CCN(C)C(C)C4)cc3F)ncc2Cl)n[nH]1 (stereo not shown) [Compound 275, 5-chloro-N2-(4-(1,2-dimethylpiperidin-4-yl)-2-fluoro-5-methylphenyl)-N4-(5-methyl-1H-pyrazol-3-yl)pyrimidine-2,4-diamine]
  IC50: 9 nM

## Cc1cc(C2CCNCC2)c(C)cc1Nc1ncc(Cl)c(Nc2cc(C3CC3)[nH]n2)n1 [Compound 18, 5-chloro-N4-(5-cyclopropyl-1H-pyrazol-3-yl)-N2-(2,5-dimethyl-4-(piperidin-4-yl)phenyl)pyrimidine-2,4-diamine]
  IC50: 95 nM

## Cc1cc(Nc2nc(Nc3cc(C)c(C4CCN(C5=CC(=O)CC5)CC4)cc3F)ncc2Cl)n[nH]1 [Compound 282, 3-(4-(4-(5-Chloro-4-(5-methyl-1H-pyrazol-3-ylamino)pyrimidin-2-ylamino)-5-fluoro-2-methylphenyl)piperidin-1-yl)cyclopent-2-en-one]
  IC50: 48 nM

## CC(=O)NCC(=O)N1CCC(c2cc(F)c(Nc3ncc(Cl)c(Nc4cc(C)[nH]n4)n3)cc2C)CC1 [Compound 107, N-(2-(4-(4-(5-chloro-4-(5-methyl-1H-pyrazol-3-ylamino)pyrimidin-2-ylamino)-5-fluoro-2-methylphenyl)piperidin-1-yl)-2-oxoethyl)acetamide]
  IC50: 57 nM

## Cc1cc(Nc2ncc(Cl)c(NC3CCCCNC3=O)n2)c(F)cc1C1CCN(C)CC1 (stereo not shown) [Compound 9, 3-(5-chloro-2-(2-fluoro-5-methyl-4-(1-methylpiperidin-4-yl)phenylamino)pyrimidin-4-ylamino)azepan-2-one]
  IC50: 87 nM

## CNC(=O)CN1CCCCC1c1cc(C)c(Nc2ncc(Cl)c(Nc3cc(C)[nH]n3)n2)cc1C (stereo not shown) [Compound 182, 2-(2-(4-(5-chloro-4-(5-methyl-1H-pyrazol-3-ylamino)pyrimidin-2-ylamino)-2,5-dimethylphenyl)piperidin-1-yl)-N-methylacetamide]
  IC50: 19 nM

## CNC(=O)CN1CCC(c2cc(C)c(Nc3ncc(Cl)c(Nc4cc(C)[nH]n4)n3)cc2C)CC1 [Compound 38, 2-(4-(4-(5-chloro-4-(5-methyl-1H-pyrazol-3-ylamino)pyrimidin-2-ylamino)-2,5-dimethylphenyl)piperidin-1-yl)-N-methylacetamide]
  IC50: 10 nM

## Cc1cc(Nc2nc(Nc3cc(C)c(C4CCN(C5CNC5)CC4)cc3F)ncc2Cl)n[nH]1 [Compound 296, N2-(4-(1-(azetidin-3-yl)piperidin-4-yl)-2-fluoro-5-methylphenyl)-5-chloro-N4-(5-methyl-1H-pyrazol-3-yl)pyrimidine-2,4-diamine]
  IC50: 101 nM

— patent US8859574B2 (IRM LLC, priority 2008, dated 2014)
